Twelve compounds from patent US20050250677A1, “Glycopeptide antibiotic derivatives” (priority 2002, published 2005) can be followed below.

Read-outs that look alike come from different tables or passages of the source. A value given as a limit tells only on which side of the number the result lay.

The subject of data set [1] is CMV. Kind of data set: Anti-CMV assay: virus-induced cytopathicity in HEL cell cultures.
Data set [2] deals with HEL cells. Conditions: read-out: CC50 (HEL), HEL cells.
Data set [3] deals with HEL cells.
Data set [4] concerns VZV (wild-type strains). Kind of data set: Anti-VZV assay (wild-type strains): virus-induced cytopathicity in HEL cell cultures. Type of data set: cell-based, varicella-zoster virus.
Data set [5] concerns HIV-1 (IIIB). The data set can be described thus: Inhibition of HIV-1 (IIIB)-induced cytopathicity (giant cell formation) in CEM cells. Type of data set: cell-based. Conditions: read-out: EC50 HIV-1 (concentration required to inhibit HIV-induced giant cell formation by 50%); HIV-1, CEM cell cultures. As for the experimental part:
(§1) A variety of glycopeptide antibiotic derivatives of vancomycin, eremomycin and teicoplanin including their aglycon derivatives were evaluated for their inhibitory activity against HIV-1 (IIIB) and HIV-2(ROD) in CEM cell cultures.

Data set [6] concerns murine leukemia L1210. Kind of data set: Cytostatic activity assay, L1210 cells. Type of data set: cell-based. The settings on record: read-out: IC50 L1210 (compound concentration required to inhibit tumor cell proliferation by 50%).
The subject of data set [7] is human lymphocyte Molt4/clone 8. The data set can be described thus: Cytostatic activity assay, Molt4/clone 8 cells. Type of data set: cell-based. Conditions: read-out: IC50 Molt4/C8 (compound concentration required to inhibit tumor cell proliferation by 50%).
In data set [8] the test system is FCV. Kind of data set: Feline corona virus assay in Feline Crandel kidney cells (MTS). The data set is classed as cell-based. The settings on record: for EC50: FCV in FCK cells, read-out: EC50 FCV. As to the method:
Feline Crandel kidney cells were seeded in 96-well microtiter plates at 24,000 cells/well. Then, 24 hrs later, an appropriate inoculum of FCV is added together with 5-fold dilutions of the test compounds. After 4 days, a MTS/PMS solution was added to each well. Following a 90 min incubation period at 37° C., the optical density of the wells was read at 498 nm in a microplate reader.

The subject of data set [9] is FCK cells. Conditions: read-out: CC50 FCK; FCK cells.
Data set [10] deals with human lymphocyte CEM. Kind of data set: Cytostatic activity assay, CEM cells. The settings on record: read-out: IC50 CEM (compound concentration required to inhibit tumor cell proliferation by 50%). The data set is classed as cell-based.
Data set [11] relates to HIV-2(ROD). The data set can be described thus: Inhibition of HIV-2 (ROD)-induced cytopathicity (giant cell formation) in CEM cells. Conditions: read-out: EC50 HIV-2 (concentration required to inhibit HIV-induced giant cell formation by 50%); HIV-2, CEM cell cultures. Type of data set: cell-based. As for the experimental part: as §1
[12] abbreviates: read-out: EC50 CMV AD-169, CMV strain AD-169, HEL cell cultures.
Setting [13] is: read-out: EC50 CMV Davis, CMV strain Davis, HEL cell cultures.
[14] abbreviates: VZV strain OKA, HEL cell cultures, read-out: EC50 VZV (OKA).
Where [15] appears, read: VZV strain YS, HEL cell cultures, read-out: EC50 VZV (YS).

For the compound `CNC(CC(C)C)C(=O)NC1C(=O)NC(CC(N)=O)C(=O)NC2C(=O)NC3C(=O)NC(C(=O)NC(C(=O)O)c4cc(O)cc(O)c4-c4cc3ccc4O)C(O)c3ccc(c(Cl)c3)Oc3cc2cc(c3OC2OC(CO)C(O)C(O)C2OC2CC(C)(NCc3ccc(-c4ccc(Cl)cc4)cc3)C(O)C(C)O2)Oc2ccc(cc2Cl)C1O` (stereo not shown) [Compound 59], in [1], the “anti-CMV activity” value was “anti-CMV activity”. Further, the EC50 was above 5 µM in data set [1] (setting [12]); 16 µM in [1] (setting [13]); 0.87 µM in data set [4] (setting [14]); 0.89 µM in [4] (setting [15]); 0.87 to 0.89 µM in data set [4] (read-out: EC50 against VZV). The CC50 in data set [2] (anti-CMV table) and in data set [2] (anti-VZV table) was above 50 µM each time. Besides, the “MTC (HEL)” value in data set [3] (anti-CMV table) and in [3] (anti-VZV table) was 5 to 20 µM each time.
`CNC(CC(C)C)C(=O)NC1C(=O)NC(CC(N)=O)C(=O)NC2C(=O)NC3C(=O)NC(C(=O)NC(C(=O)NCc4ccc(F)cc4)c4cc(O)cc(O)c4-c4cc3ccc4O)C(O)c3ccc(cc3)Oc3cc2cc(c3O)Oc2ccc(cc2Cl)C1O` (stereo not shown) [Compound 100]: the EC50 in [5] was 41.7 ± 20.2 µM; in [8] it was 20 µM; in [11], above 125 µM. Further, the IC50 in [6], in [7] and in data set [10] was above 250 µM throughout. In [8], the “activity against FCV” value is “pronounced activity”. Moreover, the cytotoxic concentration (CC50) in data set [9] is above 100 µM.
Turning to `O=C1NC2C(=O)NC3C(=O)NC4C(=O)NC(C(=O)NC(C(=O)O)c5cc(O)cc(O)c5-c5cc4ccc5O)C(O)c4ccc(c(Cl)c4)Oc4cc3cc(c4O)Oc3ccc(cc3Cl)CC1NC(=O)C(NCc1ccc(-c3ccccc3)cc1)c1ccc(O)c(c1)Oc1cc(O)cc2c1` (stereo not shown) [Compound 122], the EC50 in [1] (setting [12]) is above 20 µM; in data set [4] (setting [14]), 1 µM; in data set [4] (setting [15]) it was 1 µM. For the same compound, the CC50 in data set [2] (anti-CMV table) and in data set [2] (anti-VZV table) was above 50 µM throughout. In addition, the “MTC (HEL)” value in data set [3] (anti-CMV table) and in [3] (anti-VZV table) was 20 to 50 µM in each case.
Turning to `NC(=O)CC1NC(=O)C(NC(=O)C(N)Cc2c[nH]c3ccccc23)C(O)c2ccc(c(Cl)c2)Oc2cc3cc(c2O)Oc2ccc(cc2)C(O)C2NC(=O)C(NC(=O)C3NC1=O)c1ccc(O)c(c1)-c1c(O)cc(O)cc1C(C(=O)O)NC2=O` [Compound 109, N-(D-Trp)-(de-N-Me-D-Leu)eremomycin aglycon], the values for the EC50 in data set [5], in data set [8] and in data set [11] were 7.3 ± 0.58 µM, 28 µM and 42.5 ± 10.6 µM, respectively. In addition, the IC50 in [6], in data set [7] and in data set [10] was above 250 µM throughout. Further, the “activity against FCV” value in data set [8] is listed as “pronounced activity”. Moreover, the CC50 in data set [9] was above 100 µM.
`CCCCc1ccc(CNCc2c(O)cc3c(c2O)-c2cc(ccc2O)C2NC(=O)C4NC(=O)C5NC(=O)C(Cc6ccc(c(Cl)c6)Oc6cc4cc(c6O)Oc4ccc(cc4Cl)C(O)C(NC2=O)C(=O)NC3C(=O)NC)NC(=O)C(NC(=O)OC(C)(C)C)c2ccc(O)c(c2)Oc2cc(O)cc5c2)cc1` (stereo not shown) [Compound 47]: the EC50 was 6 ± 1 µM in data set [5], 16 µM in [8] and 12 ± 5.2 µM in data set [11]. The IC50 was 70 ± 23 µM in data set [6], above 100 µM in data set [7] and above 100 µM in data set [10]. Further, in [9], the CC50 is above 50 µM.
Take `NC1C(=O)NC2Cc3ccc(c(Cl)c3)Oc3cc4cc(c3O)Oc3ccc(cc3Cl)C(O)C3NC(=O)C(NC(=O)C4NC(=O)C(NC2=O)c2cc(O)cc(c2)Oc2cc1ccc2O)c1ccc(O)c(c1)-c1c(cc(O)c(CNC2C4CC5CC(C4)CC2C5)c1O)C(C(=O)NC1C2CC4CC(C2)CC1C4)NC3=O` (stereo not shown) [Compound 52]: the EC50 in data set [5] came to 2.5 ± 0.7 µM; in data set [8], 14 µM; in data set [11], 3.5 ± 2.1 µM. The values for the IC50 in data set [6], in data set [7] and in data set [10] were 202 ± 68 µM, above 250 µM and above 250 µM, respectively. Besides, in [9], the CC50 is above 50 µM.
For `CCCCc1ccc(CNC2C(Oc3c4cc5cc3Oc3ccc(cc3Cl)C(O)C3NC(=O)C(NC(=O)C5NC(=O)C5NC(=O)C(Cc6ccc(cc6)O4)NC(=O)C(NC)c4ccc(O)c(c4)Oc4cc(O)c(Cl)c5c4)c4ccc(O)c(c4)-c4c(cc(O)c(CN5CCN(Cc6ccc(-c7ccccc7)cc6)CC5)c4O)C(C(=O)NCCCN(C)C)NC3=O)OC(C(=O)NCCCN(C)C)C(O)C2O)cc1` (stereo not shown) [Compound 13], the EC50 was 3.5 ± 2.1 µM in [5], 5.9 µM in data set [8] and 20 µM in data set [11]. The figures for the IC50 in data set [6], in data set [7] and in [10] were 25 ± 0.7 µM, 35 ± 6.1 µM and 212 ± 54 µM, respectively. In addition, the “activity against FCV” value in data set [8] is recorded as “pronounced activity”. For the same compound, the CC50 in data set [9] stood at 30 µM.
Regarding `CNC(=O)C1NC(=O)C2NC(=O)C(NC(=O)C3NC(=O)C(CC(N)=O)NC(=O)C(NC(=O)C(CC(C)C)N(C)C(=O)OC(C)(C)C)C(O)c4ccc(c(Cl)c4)Oc4cc3cc(c4O)Oc3ccc(cc3)C2O)c2ccc(O)c(c2)-c2c1cc(O)c(CN1CCN(Cc3ccc(-c4ccccc4)cc3)CC1)c2O` (stereo not shown) [Compound 7], the 50% cytotoxic concentration (CC50) in data set [2] (anti-VZV table) and in data set [9] was above 50 µM throughout. In addition, in [3] (anti-VZV table), the “MTC (HEL)” value is reported as “≧20 μM”. In addition, the EC50 in data set [5] is 4 µM; in [8] it was 3.6 µM; in data set [4] (setting [14]), 1 µM; in [4] (setting [15]) it was 0.87 µM; in [11] it was 3.5 ± 0.7 µM. For the same compound, the IC50 in data set [6] is 84 ± 22 µM; in data set [7] it was above 100 µM; in data set [10], above 100 µM. Moreover, the “activity against FCV” value in [8] is reported as “pronounced activity”. Further, the “activity against VZV” value in [4] is “pronounced activity”.
As to `NC1C(=O)NC2Cc3ccc(c(Cl)c3)Oc3cc4cc(c3O)Oc3ccc(cc3Cl)C(O)C3NC(=O)C(NC(=O)C4NC(=O)C(NC2=O)c2cc(O)cc(c2)Oc2cc1ccc2O)c1ccc(O)c(c1)-c1c(O)cc(O)cc1C(C(=O)N1CCN(Cc2ccc(C=Cc4ccccc4)cc2)CC1)NC3=O` (stereo not shown) [Compound 127], the EC50 in data set [1] (setting [12]) was 10 µM; in data set [1] (setting [13]), above 5 µM; in data set [4] (setting [14]), 0.7 µM; in data set [4] (setting [15]), 0.3 µM. For the same compound, the CC50 in data set [2] (anti-CMV table) and in [2] (anti-VZV table) was 44 µM each time. Further, the “MTC (HEL)” value in data set [3] (anti-CMV table) and in data set [3] (anti-VZV table) was “≧5-20 μM” each time.
As for `CNC(CC(C)C)C(=O)NC1C(=O)NC(CC(N)=O)C(=O)NC2C(=O)NC3C(=O)NC(C(=O)NC(C(=O)N4CCC5CCCCC5C4)c4cc(O)cc(O)c4-c4cc3ccc4O)C(O)c3ccc(cc3)Oc3cc2cc(c3O)Oc2ccc(cc2Cl)C1O` (stereo not shown) [Compound 101], the EC50 in data set [5] is 63.3 ± 53.5 µM; in data set [8] it was 47 µM; in data set [11], above 125 µM. Also, the IC50 in data set [6], in [7] and in data set [10] was above 250 µM throughout. For the same compound, in [8], the “activity against FCV” value was “pronounced activity”. The CC50 in data set [9] is above 100 µM.
In the case of `CNC(CC(C)C)C(=O)NC1C(=O)NC(CC(N)=O)C(=O)NC2C(=O)NC3C(=O)NC(C(=O)NC(C(=O)NCC45CC6CC(CC(C6)C4)C5)c4cc(O)cc(O)c4-c4cc3ccc4O)C(O)c3ccc(cc3)Oc3cc2cc(c3O)Oc2ccc(cc2Cl)C1O` (stereo not shown) [Compound 99], the EC50 in data set [5] was found to be 1.6 ± 0.36 µM; in [8], 23 µM; in [11] it was 7 µM. The IC50 was 94 ± 15 µM in [6], 126 ± 11 µM in [7] and 148 ± 3 µM in data set [10]. The “activity against FCV” value in data set [8] was “pronounced activity”. Further, in [9], the CC50 is at least 100 µM.
In the case of `CCCCCCCCCCNC1(C)CC(OC2C(Oc3c4cc5cc3Oc3ccc(cc3Cl)C(O)C(NC(=O)C(CC(C)C)NC)C(=O)NC(CC(N)=O)C(=O)NC5C(=O)NC3C(=O)NC(C(=O)NC(C(=O)O)c5cc(O)cc(O)c5-c5cc3ccc5O)C(OC3CC(C)(N)C(O)C(C)O3)c3ccc(cc3)O4)OC(CO)C(O)C2O)OC(C)C1O` (stereo not shown) [Compound 68], the EC50 in [1] (setting [12]) was 20 µM; in data set [1] (setting [13]), above 20 µM; in [4] (setting [14]) it was above 2 µM; in data set [4] (setting [15]), 0.7 µM. Further, the cytotoxic concentration (CC50) in data set [2] (anti-CMV table) and in [2] (anti-VZV table) was above 200 µM throughout. Besides, the “MTC (HEL)” value in [3] (anti-CMV table) and in data set [3] (anti-VZV table) was 5 to 50 µM in each case.
